Source: PMC6736568, “Discovery of Novel Anti-cryptosporidial Activities From Natural Products by in vitro High-Throughput Phenotypic Screening” (Frontiers in Microbiology, 2019)
Structures can show the parent of a compound that is named as a salt. Where two headings read alike, the source gives them in different places.

Legend:
[1] = tested on: Cryptosporidium parvum; experiment: qRT-PCR assay of the growth of C. parvum in vitro in HCT-8 host cells (primary and secondary screening, EC50); assay type: cell-based; conditions: Cryptosporidium parvum, HCT-8; for inhibition at 3.3 µM: secondary screening at 3.3 uM, read-out: % Inhibition (3.3 uM)
[2] = tested on: HCT-8 host cells (Hs18S)
[3] = in vitro; conditions: for cytotoxicity at 41 h, 10 µM: human
[4] = primary screening at 10 uM, read-out: Inhibition (%)
[5] = primary screening at 10 uM, treated vs control

Hs18S ΔCT ([2]; human, 41 h, 10 μM) | SMILES | inhibition at 10 µM [1, 4] [%] | inhibition at 3.3 µM [1] [%] | cytotoxicity at 41 h, 10 µM [3] [%] | Hs18S ΔCT [2, 5] | cytotoxicity at 10 µM [3] [%] | inhibition at 10 µM [1] [%] | Hs18S ΔCT [2]
0.62 | CC[C@H]1OC(=O)[C@H](C)[C@@H](O[C@H]2C[C@@](C)(OC)[C@@H](O)[C@H](C)O2)[C@H](C)[C@@H](O[C@@H]2O[C@H](C)C[C@H](N(C)C)[C@H]2O)[C@](C)(O)C[C@@H](C)C(=O)[C@H](C)[C@@H](O)[C@]1(C)O [ERYTHROMYCIN] | 94.6 | -13 | 35 |  |  |  | 
 | CC(C)=CC1C(C(=O)O)C1(C)C (stereo not shown) [CHRYSANTHEMIC ACID] | -13.4 |  |  | -0.32 | -24.6 |  | 
3.02 | CO[C@H]1C[C@H](O[C@H]2[C@H](C)[C@@H](O[C@@H]3O[C@H](C)C[C@H](N(C)C)[C@H]3O)[C@@H](C)C[C@@]3(CO3)C(=O)[C@H](C)[C@@H](O)[C@@H](C)[C@@H](C)OC(=O)[C@@H]2C)O[C@@H](C)[C@@H]1O [OLEANDOMYCIN PHOSPHATE] | 17.6 |  | 87.6 |  |  |  | 
 | N=C(N)NCCCCN [AGMATINE SULFATE] | -2.93 |  |  | 0.21 | 13.5 |  | 
 | O=C1C[C@@H](c2ccc(O)cc2)Oc2cc(O)cc(O)c21 [NARINGENIN] | 47.6 |  | -17.3 | -0.23 |  |  | 
0.40 | COc1cc([C@@H]2c3cc4c(cc3[C@@H](O[C@@H]3O[C@@H]5CO[C@@H](C)O[C@H]5[C@H](O)[C@H]3O)[C@H]3COC(=O)[C@H]23)OCO4)cc(OC)c1O [ETOPOSIDE] | 48.5 |  | 24.1 |  |  |  | 
-0.20 | CC(C)[C@@H]1CC[C@@H](C)CC1=O [MENTHONE] | 28.9 |  | -14.5 |  |  |  | 
 | Cc1cc(O)cc(O)c1C(=O)O [ORSELLINIC ACID] | 37.5 |  | -19.3 | -0.25 |  |  | 
 | CC(=O)Oc1ccc(/C=C/c2cc(OC(C)=O)cc(OC(C)=O)c2)cc1 [TRIACETYLRESVERATROL] | -64.8 |  |  | 0.19 | 12.4 |  | 
-0.10 | COc1c(CC(=O)c2cc3c(cc2O)OC(C)(C)C(O)C3)ccc2c1C=CC(C)(C)O2 (stereo not shown) [DIHYDROMUNDULETONE] | 4.35 |  | -7.4 |  |  |  | 
-0.15 | C=C[C@](C)(O)CC[C@@H]1[C@@]2(C)CCCC(C)(C)[C@@H]2CC[C@@]1(C)O [SCLAREOL] | 7.29 |  | -10.7 |  |  |  | 
 | COc1c2ccoc2cc2oc(=O)ccc12 [BERGAPTEN] | -22.3 |  |  | 0.06 | 4.3 |  | 
 | C[N+]12CC[C@@]34c5ccccc5N5C(=O)C[C@@H]6OCC=C(C1)[C@H](C[C@@H]32)[C@@H]6[C@H]54 (stereo partly shown) [[…]] | -6.9 |  |  | 0.58 | 33.3 |  | 
0.54 | O=c1c(O)c(-c2ccc(O)cc2)oc2cc(O)cc(O)c12 [KAEMPFEROL] | 19.8 |  | 31.2 |  |  |  | 
0.55 | C[C@H](CCC(=O)O)[C@H]1CC[C@H]2[C@@H]3CC[C@@H]4C[C@H](O)CC[C@]4(C)[C@H]3C[C@H](O)[C@]12C [DEOXYCHOLIC ACID] | -39.8 |  | 31.7 |  |  |  | 
 | CC1(C)[C@@H](O)CC[C@]2(C)[C@H]3C(=O)C=C4[C@H]5C[C@@](C)(C(=O)O)CC[C@]5(C)CC[C@@]4(C)[C@]3(C)CC[C@@H]12 | -12.7 |  |  | -0.01 | -0.5 |  | 
 | N#C[C@H](O[C@@H]1O[C@H](CO[C@@H]2O[C@H](CO)[C@@H](O)[C@H](O)[C@H]2O)[C@@H](O)[C@H](O)[C@H]1O)c1ccccc1 [AMYGDALIN] | -15.6 |  |  | 0.07 | 4.8 |  | 
 | NCCCCN [PUTRESCINE DIHYDROCHLORIDE] |  |  |  |  | -3 | 28.7 | -0.04
 | COc1cc(O)c2c(=O)c(OC)c(-c3ccc(OC)c(OC)c3)oc2c1 [RETUSIN] | 33.2 |  |  | 0.27 | 17 |  | 
 | N=C(N)NOCC[C@H](N)C(=O)O [CANAVANINE] | -3.4 |  |  | 0.29 | 18.4 |  | 
 | CN[C@@H]1[C@@H](O)[C@@H](O[C@@H]2[C@@H](O)[C@H](O[C@H]3O[C@H]([C@@H](C)O)[C@@H](O)[C@H](O)[C@H]3N)[C@@H](N)C[C@H]2N)OC[C@]1(C)O [GENETICIN] | -26.1 |  |  | 0.07 | 4.9 |  | 
 | CC(=O)Oc1cc(OC(C)=O)c2c(c1)O[C@H](c1ccc(OC(C)=O)c(OC(C)=O)c1)[C@H](OC(C)=O)C2 [EPICATECHIN PENTAACETATE] | -52.5 |  |  | -0.02 | -1.3 |  | 

Hs18S ΔCT ([2]; human, 41 h, 10 μM) | SMILES | inhibition at 10 µM [1, 4] [%] | inhibition at 3.3 µM [1] [%] | cytotoxicity at 41 h, 10 µM [3] [%] | Hs18S ΔCT [2, 5] | cytotoxicity at 10 µM [3] [%] | inhibition at 10 µM [1] [%] | Hs18S ΔCT [2]
0.36 | C[C@]1(OC(=O)/C=C/c2ccccc2)C[C@@H](O)[C@]2(O)C=CO[C@@H](O[C@@H]3O[C@H](CO)[C@@H](O)[C@H](O)[C@H]3O)[C@@H]21 [HARPAGOSIDE] | -42.1 |  | 21.8 |  |  |  | 
-0.17 | COc1ccc([C@@H](C)C(=O)c2ccc(O)cc2O)cc1 [ANGOLENSIN (R)] | -26.9 |  | -12.5 |  |  |  | 
 | CC[C@@]1(O)C[C@H](O[C@H]2C[C@H](N(C)C)[C@H](O)[C@H](C)O2)c2c(cc3c(c2O)C(=O)c2c(O)ccc(O)c2C3=O)[C@H]1C(=O)OC [PYRROMYCIN] | -46.1 |  |  | 0.35 | 21.5 |  | 
-0.16 | O=C1C=C(O)C(=O)c2ccccc21 [LAWSONE] | -46.1 |  | -12 |  |  |  | 
 | C=C(C)[C@H]1Cc2c(ccc3c2O[C@@H]2COc4cc(OC)c(OC)cc4[C@@H]2C3=O)O1 [ROTENONE] | 74.7 | 76 |  | 1.24 | 57.8 |  | 
1.99 | COc1ccc(-c2cc(=O)c3c(O)c(OC)c(O[C@@H]4O[C@H](CO[C@@H]5O[C@@H](C)[C@H](O)[C@@H](O)[C@H]5O)[C@@H](O)[C@H](O)[C@H]4O)cc3o2)cc1 [PECTOLINARIN] | -21 |  | 74.8 |  |  |  | 
0.33 | C=CC(C1=CC(=O)C=CC1=O)c1ccccc1 (stereo not shown) [DALBERGIONE] | 32.8 |  | 20.4 |  |  |  | 
1.02 | COC(=O)c1c(C)cc(OC(=O)c2c(C)cc(O)c(C=O)c2O)c(C)c1O [ATRANORIN] | -45.9 |  | 50.7 |  |  |  | 
0.08 | NCCC(=O)N[C@@H](Cc1cnc[nH]1)C(=O)O [CARNOSINE] | 41.1 |  | 5.5 |  |  |  | 
-0.02 | Cc1cc(OC(=O)c2c(C)cc(O)cc2O)cc(O)c1C(=O)O [LECANORIC ACID] | -20 |  | -1.2 |  |  |  | 
 | CC[C@H]1[C@@H]2C[C@H]3[C@@H]4N(C)c5ccccc5[C@]45C[C@@H]([C@H]2[C@H]5O)N3[C@@H]1O [AJMALINE] | -1.24 |  |  | 0.10 | 6.9 |  | 
 | Cc1cc(=O)oc2cc(O)c(O)cc12 [4-METHYLESCULETIN] | -3.64 |  |  | 0.01 | 0.7 |  | 
 | COc1cc(-c2coc3cc(OC)c(OC)c(OC)c3c2=O)cc(OC)c1OC [IRIGENIN TRIMETHYL ETHER] | 13.7 |  |  | -0.48 | -39.9 |  | 
 | CCN1C[C@]2(COC)[C@H](O)C[C@H](OC)[C@@]34[C@@H]5C[C@@]6(O)[C@H](OC(=O)c7ccccc7)[C@@H]5[C@@](OC(C)=O)([C@@H]([C@H](OC)[C@H]23)[C@@H]14)[C@@H](O)[C@@H]6OC [ACONITINE] | 2.84 |  |  | -0.16 | -11.7 |  | 
0.22 | O=c1[nH]cnc2nc[nH]c12 [HYPOXANTHINE] | 23.2 |  | 14.3 |  |  |  | 
1.03 | COc1c(C)c2c(c(O)c1C/C=C(\C)CCC(=O)O)C(=O)OC2 [MYCOPHENOLIC ACID] | 44.4 |  | 51.1 |  |  |  | 
 | C=CCN1CC[C@]23c4c5ccc(O)c4O[C@H]2C(=O)CC[C@@]3(O)[C@H]1C5 [NALOXONE HYDROCHLORIDE] | 21.9 |  |  | 0.20 | 12.7 |  | 
 | C[C@@H]1C(=O)O[C@H]2C[C@@]34[C@H]5C[C@@H](C(C)(C)C)[C@]36[C@@H](OC(=O)[C@@H]6O)O[C@@]4(C(=O)O5)[C@]21O [GINKGOLIDE A] | 37.5 |  |  | 0.10 | 6.6 |  | 
 | COc1cc2c(c(OC)c1OC)-c1ccc(=O)c(O)cc1[C@@H](NC(C)=O)CC2 [COLCHICEINE] | 13.7 |  |  | -0.43 | -34.9 |  | 
 | COc1ccc(Cc2nccc3cc(OC)c(OC)cc23)cc1OC [PAPAVERINE HYDROCHLORIDE] | 56.2 |  | 32.7 |  |  |  | 0.57
 | C[C@]12CC[C@H](O)C[C@H]1CC[C@@H]1[C@@H]2C[C@@H](O)[C@]2(C)[C@@H](C3=CC(=O)OC3)CC[C@]12O [DIGOXIGENIN] | 95.6 | 69 |  | 0.33 | 19.2 |  | 

SMILES | Hs18S ΔCT ([2]; human, 41 h, 10 μM) | inhibition at 10 µM [1, 4] [%] | inhibition at 3.3 µM [1] [%] | cytotoxicity at 41 h, 10 µM [3] [%] | Hs18S ΔCT [2, 5] | cytotoxicity at 10 µM [3] [%] | inhibition at 10 µM [1] [%] | Hs18S ΔCT [2]
CC(=O)OCC(=O)[C@H]1CC[C@H]2[C@@H]3CC=C4C[C@@H](O)CC[C@]4(C)[C@H]3CC[C@]12C [21-ACETOXYPREGNENOLONE] | 0.10 | -41.2 |  | 6.5 |  |  |  | 
CC(C)=CCC1=C(O)C(=O)c2ccccc2C1=O [LAPACHOL] | -0.60 | 91.3 | -98 | -52 |  |  |  | 
CC(=O)Oc1ccc(O)cc1 [4-ACETOXYPHENOL] | 0.21 | -14.1 |  | 13.4 |  |  |  | 
